Here are results for four molecules from ChEMBL document CHEMBL1201862, “PubChem BioAssay data set” (2004).

What all share (format): functional
The target in assay [1] is Activin receptor type-1 (Homo sapiens, UniProt Q04771). The experiment in a line: Navigating the Kinome. Panel member name: ACVR1.
The target of assay [2] is Dual specificity protein kinase CLK4 (Homo sapiens, UniProt Q9HAZ1).
The target of assay [3] is T1, Serine/threonine-protein kinase Chk1 (Homo sapiens, UniProt O14757).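 Also: measured as one member of a kinome-wide kinase profiling panel.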
T1 sequence (O14757 whole entry): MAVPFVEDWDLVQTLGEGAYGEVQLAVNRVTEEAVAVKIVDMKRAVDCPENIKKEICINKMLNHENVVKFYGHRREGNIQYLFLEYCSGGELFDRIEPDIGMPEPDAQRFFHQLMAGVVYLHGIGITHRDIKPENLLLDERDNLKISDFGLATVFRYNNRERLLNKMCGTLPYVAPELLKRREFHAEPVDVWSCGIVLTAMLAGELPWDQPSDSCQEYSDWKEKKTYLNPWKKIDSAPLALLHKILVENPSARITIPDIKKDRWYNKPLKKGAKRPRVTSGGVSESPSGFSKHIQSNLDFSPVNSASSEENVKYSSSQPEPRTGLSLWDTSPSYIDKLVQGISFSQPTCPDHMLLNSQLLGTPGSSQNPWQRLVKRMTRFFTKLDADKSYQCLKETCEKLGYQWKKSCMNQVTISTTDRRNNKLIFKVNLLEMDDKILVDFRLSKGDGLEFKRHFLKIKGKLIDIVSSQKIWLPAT

Assay [4] has as its target Cyclin-dependent kinase 5 (Homo sapiens, UniProt Q00535).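 Also: CDK5 measured as one member of a kinase profiling panel.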
For assay [5], the target named is Dual specificity tyrosine-phosphorylation-regulated kinase 1B (Homo sapiens, UniProt Q9Y463). Description: Navigating the Kinome. Panel member name: DYRK1B.
For assay [6], the target named is Platelet-derived growth factor receptor alpha (Homo sapiens, UniProt P16234). The experiment in a line: Navigating the Kinome. Panel member name: PDGFRA.
Assay [7] deals with Leucine-rich repeat serine/threonine-protein kinase 2 (Homo sapiens, UniProt Q5S007).
For assay [8], the target named is Dual specificity tyrosine-phosphorylation-regulated kinase 1A (Homo sapiens, UniProt Q13627).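 Also: measured against DYRK1A as one member of a broad kinome profiling panel.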
Assay [9] concerns the target Serine/threonine-protein kinase Nek2 (Homo sapiens, UniProt P51955).
Assay [10] concerns the target Serine/threonine-protein kinase D2 (Homo sapiens, UniProt Q9BZL6).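 Also: measured against PRKD2 as one member of a kinome-wide kinase profiling panel.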
Assay [11] deals with Protein kinase C gamma type (Homo sapiens, UniProt P05129).
Assay [12] concerns the target MAP kinase-activated protein kinase 3 (Homo sapiens, UniProt Q16644).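 Also: value comes from a kinome-wide profiling panel in which MAPKAPK3 is one of the panel members.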
Assay [13] deals with G protein-coupled receptor kinase 5 (Homo sapiens, UniProt P34947). Description: Navigating the Kinome. Panel member name: GPRK5.
Assay [14] addresses Mitogen-activated protein kinase kinase kinase 10 (Homo sapiens, UniProt Q02779). Description: Navigating the Kinome. Panel member name: MAP3K10.

Calls of active or inactive are those of the source.

Chain of Dual specificity protein kinase CLK4 (Q9HAZ1 whole entry): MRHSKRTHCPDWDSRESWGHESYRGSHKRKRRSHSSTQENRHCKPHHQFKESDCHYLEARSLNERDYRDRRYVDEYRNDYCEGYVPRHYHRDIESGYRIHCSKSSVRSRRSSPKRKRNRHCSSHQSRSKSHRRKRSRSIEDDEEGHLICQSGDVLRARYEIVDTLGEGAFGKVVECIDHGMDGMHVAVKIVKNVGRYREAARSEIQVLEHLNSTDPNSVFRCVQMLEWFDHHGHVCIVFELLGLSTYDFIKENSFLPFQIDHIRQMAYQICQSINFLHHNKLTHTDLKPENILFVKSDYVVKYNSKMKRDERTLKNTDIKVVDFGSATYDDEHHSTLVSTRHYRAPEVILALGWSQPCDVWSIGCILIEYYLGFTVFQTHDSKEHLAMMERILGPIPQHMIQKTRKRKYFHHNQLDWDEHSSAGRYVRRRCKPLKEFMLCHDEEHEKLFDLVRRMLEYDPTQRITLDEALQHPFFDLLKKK
Chain of Dual specificity tyrosine-phosphorylation-regulated kinase 1B (Q9Y463 whole entry): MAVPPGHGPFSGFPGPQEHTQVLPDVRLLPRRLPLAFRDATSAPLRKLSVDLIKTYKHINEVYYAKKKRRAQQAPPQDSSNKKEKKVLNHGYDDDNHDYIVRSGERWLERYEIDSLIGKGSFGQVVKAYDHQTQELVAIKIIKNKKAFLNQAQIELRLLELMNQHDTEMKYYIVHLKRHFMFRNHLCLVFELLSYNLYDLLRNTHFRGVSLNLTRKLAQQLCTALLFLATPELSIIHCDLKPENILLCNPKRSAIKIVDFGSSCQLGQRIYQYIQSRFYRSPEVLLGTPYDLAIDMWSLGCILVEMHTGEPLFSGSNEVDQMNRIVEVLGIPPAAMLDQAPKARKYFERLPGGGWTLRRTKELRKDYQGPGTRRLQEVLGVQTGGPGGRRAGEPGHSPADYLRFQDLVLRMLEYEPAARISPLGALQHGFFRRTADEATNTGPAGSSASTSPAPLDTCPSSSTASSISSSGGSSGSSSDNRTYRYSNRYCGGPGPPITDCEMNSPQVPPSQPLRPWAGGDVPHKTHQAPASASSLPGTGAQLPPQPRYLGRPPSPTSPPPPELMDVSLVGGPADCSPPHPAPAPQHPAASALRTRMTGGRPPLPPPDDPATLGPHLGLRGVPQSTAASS
Chain of Leucine-rich repeat serine/threonine-protein kinase 2 (Q5S007 whole entry): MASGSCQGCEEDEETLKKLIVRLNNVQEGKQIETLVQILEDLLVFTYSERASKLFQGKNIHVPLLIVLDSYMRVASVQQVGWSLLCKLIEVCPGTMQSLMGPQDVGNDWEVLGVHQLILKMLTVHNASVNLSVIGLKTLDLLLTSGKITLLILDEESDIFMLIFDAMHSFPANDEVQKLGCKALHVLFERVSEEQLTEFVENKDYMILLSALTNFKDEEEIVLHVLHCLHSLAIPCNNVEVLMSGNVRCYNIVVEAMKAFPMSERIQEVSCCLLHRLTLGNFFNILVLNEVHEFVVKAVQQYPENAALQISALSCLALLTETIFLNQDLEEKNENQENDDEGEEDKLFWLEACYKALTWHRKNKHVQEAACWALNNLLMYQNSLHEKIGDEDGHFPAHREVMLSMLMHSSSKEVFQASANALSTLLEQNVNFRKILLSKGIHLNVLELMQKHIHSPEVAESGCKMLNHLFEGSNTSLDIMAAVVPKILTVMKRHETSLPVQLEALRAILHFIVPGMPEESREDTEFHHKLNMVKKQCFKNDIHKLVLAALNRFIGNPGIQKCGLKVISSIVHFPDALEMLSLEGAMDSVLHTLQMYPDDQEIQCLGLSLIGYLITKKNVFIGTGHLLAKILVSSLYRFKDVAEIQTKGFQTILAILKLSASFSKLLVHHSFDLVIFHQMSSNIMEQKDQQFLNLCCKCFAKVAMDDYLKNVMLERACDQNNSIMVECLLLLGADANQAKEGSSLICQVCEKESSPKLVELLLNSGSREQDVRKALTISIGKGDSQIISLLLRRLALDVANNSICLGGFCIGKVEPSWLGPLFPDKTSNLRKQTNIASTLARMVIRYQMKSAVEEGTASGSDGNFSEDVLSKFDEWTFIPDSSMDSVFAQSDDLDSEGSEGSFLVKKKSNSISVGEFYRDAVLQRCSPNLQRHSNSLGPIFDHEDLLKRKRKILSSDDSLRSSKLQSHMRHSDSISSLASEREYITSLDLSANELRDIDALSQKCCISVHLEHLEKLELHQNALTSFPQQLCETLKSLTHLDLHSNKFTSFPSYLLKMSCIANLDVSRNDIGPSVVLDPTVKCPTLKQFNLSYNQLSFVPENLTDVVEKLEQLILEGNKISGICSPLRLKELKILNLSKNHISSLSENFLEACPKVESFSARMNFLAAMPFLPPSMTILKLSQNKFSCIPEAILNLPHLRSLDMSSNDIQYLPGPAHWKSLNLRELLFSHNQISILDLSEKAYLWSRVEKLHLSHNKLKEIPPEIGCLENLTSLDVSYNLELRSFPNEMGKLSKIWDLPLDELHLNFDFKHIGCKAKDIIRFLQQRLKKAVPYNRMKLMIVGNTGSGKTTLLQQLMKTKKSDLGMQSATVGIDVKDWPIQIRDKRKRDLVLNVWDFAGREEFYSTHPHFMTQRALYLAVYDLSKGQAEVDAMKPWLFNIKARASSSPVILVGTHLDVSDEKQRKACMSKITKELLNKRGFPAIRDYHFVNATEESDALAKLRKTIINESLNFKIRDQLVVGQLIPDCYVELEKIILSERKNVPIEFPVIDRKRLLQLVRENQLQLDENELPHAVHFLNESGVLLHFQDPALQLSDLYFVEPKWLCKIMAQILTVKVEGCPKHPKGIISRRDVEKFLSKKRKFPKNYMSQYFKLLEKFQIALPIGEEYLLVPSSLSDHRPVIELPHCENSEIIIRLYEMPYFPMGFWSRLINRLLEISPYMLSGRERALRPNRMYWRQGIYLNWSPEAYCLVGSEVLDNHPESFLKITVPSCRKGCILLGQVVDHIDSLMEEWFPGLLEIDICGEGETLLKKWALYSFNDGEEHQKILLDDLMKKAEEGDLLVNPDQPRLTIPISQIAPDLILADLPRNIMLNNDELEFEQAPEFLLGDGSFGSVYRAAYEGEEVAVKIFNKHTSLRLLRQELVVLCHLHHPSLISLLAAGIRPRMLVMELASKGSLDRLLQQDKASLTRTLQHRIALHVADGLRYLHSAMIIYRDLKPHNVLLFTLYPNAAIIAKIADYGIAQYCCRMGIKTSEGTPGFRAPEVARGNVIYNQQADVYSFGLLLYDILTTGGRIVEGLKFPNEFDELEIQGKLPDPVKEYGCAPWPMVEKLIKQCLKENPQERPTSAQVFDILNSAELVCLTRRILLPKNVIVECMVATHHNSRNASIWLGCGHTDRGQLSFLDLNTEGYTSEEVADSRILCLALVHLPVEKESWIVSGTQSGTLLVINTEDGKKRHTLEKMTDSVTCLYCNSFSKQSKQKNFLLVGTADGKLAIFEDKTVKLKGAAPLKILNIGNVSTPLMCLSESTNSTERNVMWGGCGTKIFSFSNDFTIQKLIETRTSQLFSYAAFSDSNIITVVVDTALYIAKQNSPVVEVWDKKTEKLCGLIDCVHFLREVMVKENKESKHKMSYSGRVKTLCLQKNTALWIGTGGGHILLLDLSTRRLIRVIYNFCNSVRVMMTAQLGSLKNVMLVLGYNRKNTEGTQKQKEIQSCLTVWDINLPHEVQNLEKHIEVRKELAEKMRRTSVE
Chain of Activin receptor type-1 (Q04771 whole entry): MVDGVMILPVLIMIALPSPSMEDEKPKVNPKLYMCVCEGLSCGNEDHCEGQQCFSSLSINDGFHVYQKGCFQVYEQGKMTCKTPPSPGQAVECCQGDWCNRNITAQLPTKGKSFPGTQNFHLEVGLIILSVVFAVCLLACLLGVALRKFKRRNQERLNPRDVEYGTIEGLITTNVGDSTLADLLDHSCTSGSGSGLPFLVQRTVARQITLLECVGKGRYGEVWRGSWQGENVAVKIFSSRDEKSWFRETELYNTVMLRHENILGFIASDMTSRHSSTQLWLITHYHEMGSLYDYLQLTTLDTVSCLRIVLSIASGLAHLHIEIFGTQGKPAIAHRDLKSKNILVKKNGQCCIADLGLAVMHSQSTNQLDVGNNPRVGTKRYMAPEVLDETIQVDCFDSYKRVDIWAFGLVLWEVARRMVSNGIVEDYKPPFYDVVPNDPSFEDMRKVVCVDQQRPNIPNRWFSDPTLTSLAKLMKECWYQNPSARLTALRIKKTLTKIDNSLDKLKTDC
Chain of Serine/threonine-protein kinase Nek2 (P51955 whole entry): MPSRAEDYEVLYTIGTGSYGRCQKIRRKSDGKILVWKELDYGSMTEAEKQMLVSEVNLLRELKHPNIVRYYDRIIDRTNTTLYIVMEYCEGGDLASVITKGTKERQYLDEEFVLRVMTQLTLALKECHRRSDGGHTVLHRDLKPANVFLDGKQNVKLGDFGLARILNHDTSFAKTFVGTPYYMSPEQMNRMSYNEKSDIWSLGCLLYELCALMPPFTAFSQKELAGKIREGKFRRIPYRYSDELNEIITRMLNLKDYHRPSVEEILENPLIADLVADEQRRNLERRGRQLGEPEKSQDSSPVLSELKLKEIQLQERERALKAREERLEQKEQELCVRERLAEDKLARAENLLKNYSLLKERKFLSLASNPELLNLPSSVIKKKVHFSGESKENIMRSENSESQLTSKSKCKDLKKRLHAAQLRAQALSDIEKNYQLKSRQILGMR
Chain of Cyclin-dependent kinase 5 (Q00535 whole entry): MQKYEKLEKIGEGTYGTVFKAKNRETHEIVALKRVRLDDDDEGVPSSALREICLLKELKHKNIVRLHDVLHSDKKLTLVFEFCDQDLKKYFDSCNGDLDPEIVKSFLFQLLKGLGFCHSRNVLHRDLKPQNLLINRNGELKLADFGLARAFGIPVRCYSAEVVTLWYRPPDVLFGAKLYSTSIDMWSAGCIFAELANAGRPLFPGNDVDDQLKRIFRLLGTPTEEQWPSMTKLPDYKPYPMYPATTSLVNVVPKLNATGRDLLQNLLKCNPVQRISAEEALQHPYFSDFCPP

Regarding `O=C(Nc1cccc(C(F)(F)F)n1)Nc1ccnc2cc(F)ccc12`, the Ki – broadly, a measure of affinity in units of concentration, obtained from inhibition or displacement – in assay [1] is 1.26 µM (active); in assay [2], 2.51 µM (active).
For `Nc1nnc2sc3ccccc3n12`, the Ki is 39.8 µM (active) in assay [3]; 39.8 µM (active) in assay [4]; 63.1 µM (active) in assay [5]; 63.1 µM (active) in assay [6]; 79.4 µM (active) in [7]; 31.6 µM (active) in assay [2]. Further, the Ki in assay [8] was 39.8 µM (active).
As to `Cc1cc2c(c(C#N)c1C)OC1(CCCCC1)C(N)C2=O` (stereo unspecified), the Ki is 5.01 µM (active) in assay [9] and 1.58 µM (active) in [8].
Take `O=C(O)c1ccc(Nc2ncc3c(n2)-c2ccc(Cl)cc2C(c2c(F)cccc2F)=NC3)cc1` [MLN-8054]: the Ki in assay [10] was > 10 µM (inactive); in assay [11] it was > 7.94 µM (inactive); in assay [12], > 10 µM (inactive); in assay [13] it was 1 µM (active); in [14] it was > 3.16 µM (inactive).
